# Results reported in patent US8975267B2, “Tricyclic pyrrolo derivatives, process for their preparation and their use as kinase inhibitors” (Nerviano Medical Sciences S.r.l., priority 2011, dated 2015).
# Counter-ions that a name gives are not always drawn.
# What was measured:
# MPS1 = MPS1 (Homo sapiens (Human), UniProt P33981); assay: Biochemical assay for inhibitors of MPS1 kinase activity (trans-phosphorylation, Dowex); conditions: 15 microM ATP, 200 microM P38-βtide substrate, 5 nM MPS1
# Procedure: Cloning, Expression and Purification of Recombinant MPS1 Full Length Protein.
# MPS1 full length (corresponding to residues 2-857 of the full length sequence, see Swiss-Prot accession number P33981) was PCR amplified from the full-length human MPS1 gene present in house as clone pGEX4t_MPS1.
# To get a fully activated enzyme, the protein was then subjected to auto-phosphorylation in presence of ATP 1 mM at 25° C. for 2 hours in kinase buffer (Hepes pH7.5 50 mM, MgCl2 2.5 mM, MnCl2 1 mM, DTT 1 mM, phosphatase inhibitors); ATP was then removed whit a desalting column.
# Biochemical Assay for Inhibitors of MPS1 Kinase Activity
# (§1) The inhibitory activity of putative kinase inhibitors and the potency of selected compounds were determined using a trans-phosphorylation assay.
# (§2) Specific peptide or protein substrates are trans-phosphorylated by their specific ser-thr or tyr kinase in the presence of ATP traced with ^33P-γ-ATP, and in the presence of their own optimal buffer and cofactors.
# At the end of the phosphorylation reaction, more than 98% unlabeled ATP and radioactive ATP is captured by an excess of the ion exchange dowex resin; the resin then settles down to the bottom of the reaction plate by gravity. Supernatant is subsequently withdrawn and transferred into a counting plate, then evaluated by β-counting.
# The buffer for MPS1 assay was composed of HEPES 50 mM, at pH 7.5, with 2.5 mM MgCl2, 1 mM MnCl2, 1 mM DTT, 3 microM Na3VO4, 2 mM β-glycerophosphate and 0.2 mg/mL BSA.
# The assay was run with a final concentration MPS1 of 5 nM, in the presence of 15 microM ATP and 1.5 nM ^33P-γ-ATP; the substrate was P38-βtide, used at 200 microM.
# a) for percent inhibition studies (HTS), individual dilution plates at 1 mM are diluted at a 3× concentration (30 microM) in ddH2O (3% DMSO=final concentration) using a Beckman NX automated pipetting platform. The same instrument is used for distributing the diluted mother plates into the test plates. b) for IC50 determination (KSS platform), 100 microL of each compound at 1 mM in 100% DMSO are transferred from the original plate into the first column of another 96 well plate (A1 to G1); well H1 is left empty for the internal standard inhibitor, usually staurosporine.
# An automated station for serial dilutions (Biomek FX, Beckman) is used for producing 1:3 dilutions in 100% DMSO, from line A1 to A10, and for all the seven compounds in the column. Moreover, 4-5 copies of daughter plates are prepared by reformatting 5 microL of this first set of 100% DMSO dilution plates into 384 deep well-plates: one copy of the daughter plates with the serial dilutions of test compounds will be thaw the day of the experiments, reconstituted at a 3× concentration with water and used in the IC50 determination assays. In a standard experiment, the highest concentration (3×) of all compounds is 30 microM, while the lowest one is 1.5 nM.
# 384-well plates, V bottom (test plates) are prepared with 5 microL of the compound dilution (3×) and then placed onto a PlateTrak 12 robotized station (Perkin Elmer; the robot has one 384-tips pipetting head for starting the assay plus one 96-tips head for dispensing the resin) together with one reservoir for the Enzyme mix (3×) and one for the ATP mix (3×).
# At the start of the run, the robot aspirates 5 microL of ATP mix, makes an air gap inside the tips (2 microL) and aspirates 5 microL of MPS1 mix. The following dispensation into the plates allows the kinase reaction to start upon 3 cycles of mixing, done by the robot itself.
# The robot incubates the plates for 60 minutes at room temperature, and then stops the reaction by pipetting 70 microL of dowex resin suspension into the reaction mix. Three cycles of mixing are done immediately after the addition of the resin.
# Another mixing cycle is performed after all the plates are stopped, this time using normal tips: the plates are then allowed to rest for about one hour in order to maximize ATP capture. […]
# PIM-1 = PIM-1 (Homo sapiens (Human), UniProt P11309); assay: Biochemical assay for inhibitors of PIM-1 kinase activity (trans-phosphorylation, Dowex); conditions: 200 microM ATP, 25 microM Aktide, 1 nM enzyme
# Chain of PIM-1 (P11309 whole entry): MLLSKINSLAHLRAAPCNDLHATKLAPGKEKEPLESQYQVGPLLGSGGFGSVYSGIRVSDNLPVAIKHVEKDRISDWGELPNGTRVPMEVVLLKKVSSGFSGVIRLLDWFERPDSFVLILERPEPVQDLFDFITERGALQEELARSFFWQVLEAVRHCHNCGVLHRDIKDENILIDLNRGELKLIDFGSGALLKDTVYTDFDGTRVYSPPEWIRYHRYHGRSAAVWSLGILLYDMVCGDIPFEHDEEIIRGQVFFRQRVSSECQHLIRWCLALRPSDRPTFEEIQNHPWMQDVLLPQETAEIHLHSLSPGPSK
# Procedure: Biochemical Assay for Inhibitors of PIM-1 Kinase Activity
# as §1, §2
# At the end of the phosphorylation reaction, more than 98% unlabeled ATP and radioactive ATP is captured by an excess of the ion exchange dowex resin; the resin then settles down to the bottom of the reaction plate by gravity.
# Supernatant is subsequently withdrawn and transferred into a counting plate, then evaluated by β-counting.
# The buffer for PIM-1 assay was composed of HEPES 50 mM, at pH 7.5, with 10 mM MgCl2, 1 mM DTT, 3 microM NaVO3, and 0.2 mg/ml BSA
# Full-length human PIM-1 was expressed and purified as described in Bullock A N, et al., J. Biol. Chem. 2005, 280, 41675-82.
# ATP concentration: 200 microM
# Enzyme concentration: 1 nM
# Substrate concentration Aktide (Chemical Abstract Service Registry Number 324029-01-8): 25 microM
# For IC50 determination, test compounds are received as a 1 mM solution in 100% DMSO and distributed into 96-well plates: compounds are then plated into the first column of a new 96-well plate (A1 to G1), 100 microL/well.
# An automated station (Biomek FX, Beckman) is used for serial dilutions, producing 1:3 dilutions in 100% DMSO, from line A1 to A10, for all the compounds in the column. Moreover, 4-5 copies of daughter plates are prepared by reformatting 5 microL of this first set of 100% DMSO dilution plates into 384-deep well plates: one copy of these serial dilution plates with the test compounds is thawed on the day of study, reconstituted at the working concentration (3-fold the final concentration) with 162 microL/well of water and used for IC50 determination assays. In a standard experiment, the highest concentration (3×) of compounds is typically 30 microM, while the lowest one is typically 1.5 nM.
# Each 384-well plate generates at least one curve of the standard inhibitor staurosporine and reference wells (total enzyme activity vs. no enzymatic activity) for evaluation of Z′ and signal to background (S/B) ratio.
# 384-well plates, V bottom (test plates) are prepared with 5 microL of compound diluted as previously described (3×) and then placed onto a PlateTrak 12 robotized station (Perkin Elmer; the robot has one 384-tip pipetting head for assay start, plus one 96-tip head for dispensing resin) together with one reservoir for Enzyme mix (3×) and one for ATP mix (3×).
# Data are analyzed by an internally customized version of the “Assay Explorer” SW package, which provides sigmoidal fitting of the ten-dilution curves for IC50 determination in secondary assay/hit confirmation routines.
# PIM-2 = PIM-2 (Homo sapiens (Human), UniProt Q9P1W9); assay: PIM-2 kinase inhibition assay: Dowex technique; type: biochemical; conditions: 4 microM ATP, 5 microM Aktide, 1.5 nM enzyme
# Chain of PIM-2 (Q9P1W9 whole entry): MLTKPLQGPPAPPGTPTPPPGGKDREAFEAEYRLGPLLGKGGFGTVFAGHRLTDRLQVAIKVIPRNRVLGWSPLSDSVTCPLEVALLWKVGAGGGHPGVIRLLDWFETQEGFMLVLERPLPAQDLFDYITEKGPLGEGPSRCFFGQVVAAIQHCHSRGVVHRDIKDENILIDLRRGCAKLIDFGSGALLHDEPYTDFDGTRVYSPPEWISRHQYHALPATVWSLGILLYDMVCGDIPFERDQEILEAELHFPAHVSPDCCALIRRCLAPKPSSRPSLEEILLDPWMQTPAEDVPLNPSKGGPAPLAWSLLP
# Procedure: Method for PIM-2 Kinase Inhibition Assay: Dowex Technique
# The buffer for PIM-2 assay was composed of HEPES 50 mM, at pH 7.5, with 1 mM MgCl2, 1 mM DTT, 3 microM Na3VO4, and 0.2 mg/mL BSA
# Full-length human PIM-2 was expressed and purified as described in Fedorov O, et al., PNAS 2007 104, 51, 20523-28.
# Enzyme concentration=1.5 nM
# Aktide substrate (Chemical Abstract Service Registry Number 324029-01-8)=5 microM
# See above: same procedure as described for PIM-1.
# Chain of MPS1 (P33981 2-857): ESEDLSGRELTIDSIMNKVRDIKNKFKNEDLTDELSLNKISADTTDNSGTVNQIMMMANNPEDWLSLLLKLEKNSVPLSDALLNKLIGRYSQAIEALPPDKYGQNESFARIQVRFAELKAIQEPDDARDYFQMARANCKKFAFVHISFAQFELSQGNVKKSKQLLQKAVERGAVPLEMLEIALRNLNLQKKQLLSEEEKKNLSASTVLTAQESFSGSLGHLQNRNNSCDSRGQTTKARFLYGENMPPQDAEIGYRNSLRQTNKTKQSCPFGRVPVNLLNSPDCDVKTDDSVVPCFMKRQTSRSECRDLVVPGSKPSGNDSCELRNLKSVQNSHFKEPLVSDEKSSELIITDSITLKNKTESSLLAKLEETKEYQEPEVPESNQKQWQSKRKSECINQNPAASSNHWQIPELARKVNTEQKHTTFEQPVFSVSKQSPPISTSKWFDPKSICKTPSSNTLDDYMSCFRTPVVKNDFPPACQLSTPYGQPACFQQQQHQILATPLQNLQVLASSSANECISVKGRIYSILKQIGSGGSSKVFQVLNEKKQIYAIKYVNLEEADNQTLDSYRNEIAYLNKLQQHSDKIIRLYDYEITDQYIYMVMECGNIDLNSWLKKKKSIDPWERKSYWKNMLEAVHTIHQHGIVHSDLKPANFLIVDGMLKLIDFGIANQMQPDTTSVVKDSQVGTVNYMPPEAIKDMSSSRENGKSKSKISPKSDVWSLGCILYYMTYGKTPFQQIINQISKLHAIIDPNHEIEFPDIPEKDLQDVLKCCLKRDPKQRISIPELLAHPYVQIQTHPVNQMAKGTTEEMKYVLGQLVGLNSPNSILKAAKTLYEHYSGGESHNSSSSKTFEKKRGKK
Structure (SMILES),IC50 (MPS1) [nM],IC50 (PIM-1) [nM],IC50 (PIM-2) [nM]
"CCc1cccc(CC)c1NC(=O)c1c2c(n(C)c1C)-c1nc(Nc3ccc(N4CCC(N5CCCC5)CC4)cc3OC)ncc1CC2 [Compound 3, N-(2,6-diethylphenyl)-2-({2-methoxy-4-[4-(pyrrolidin-1-yl)piperidin-1-yl]phenyl}amino)-8,9-dimethyl-6,9-dihydro-5H-pyrrolo[3,2-h]quinazoline-7-carboxamide]",99,> 10000,> 10000
"COc1cc(N2CCN(C)CC2)ccc1Nc1ncc2c(n1)-c1c(c(C(N)=O)c(C)n1C)CC2 [Compound 7, 2-{[2-methoxy-4-(4-methylpiperazin-1-yl)phenyl]amino}-8,9-dimethyl-6,9-dihydro-5H-pyrrolo[3,2-h]quinazoline-7-carboxamide]",23,748,> 5000
"CCc1cccc(CC)c1NC(=O)c1cn(C)c2c1CCCc1cnc(Nc3ccc(N4CCN(C)CC4)cc3OC)nc1-2 [Compound 16, N-(2,6-diethylphenyl)-2-{[2-methoxy-4-(4-methylpiperazin-1-yl)phenyl]amino}-10-methyl-5,6,7,10-tetrahydropyrrolo[3′,2′:6,7]cyclohepta[1,2-d]pyrimidine-8-carboxamide]",132,> 10000,> 10000
"CSc1ncc2c(n1)-c1c(c(C(N)=O)cn1C(C)C)CC2 [Compound 22, 2-(methylsulfanyl)-9-(propan-2-yl)-6,9-dihydro-5H-pyrrolo[3,2-h]quinazoline-7-carboxamide]",382,16,24
"CSc1ncc2c(n1)-c1c(c(C(N)=O)cn1CCO)CC2 [Compound 25, 9-(2-hydroxyethyl)-2-(methylsulfanyl)-6,9-dihydro-5H-pyrrolo[3,2-h]quinazoline-7-carboxamide]",2440,133,540
"CSc1ncc2ccc3c(C(N)=O)c(C)n(CCO)c3c2n1 [Compound 29, 9-(2-hydroxyethyl)-8-methyl-2-(methylsulfanyl)-9H-pyrrolo[3,2-h]quinazoline-7-carboxamide]",2940,87,408
"CSc1ncc2ccc3c(C(N)=O)c(C)n(C(C)C)c3c2n1 [Compound 30, 8-methyl-2-(methylsulfanyl)-9-(propan-2-yl)-9H-pyrrolo[3,2-h]quinazoline-7-carboxamide]",622,4,12
"CSc1ncc2c(n1)-c1c(c(C(N)=O)cn1C1CCNCC1)CC2 [Compound 32, 2-(methylsulfanyl)-9-(piperidin-4-yl)-6,9-dihydro-5H-pyrrolo[3,2-h]quinazoline-7-carboxamide hydrochloride]",> 10000,74,159
"CSc1ncc2c(n1)-c1c(c(C(N)=O)cn1[C@H]1CC[C@@H](N)CC1)CC2 [Compound 33, 9-(cis 4-aminocyclohexyl)-2-(methylsulfanyl)-6,9-dihydro-5H-pyrrolo[3,2-h]quinazoline-7-carboxamide hydrochloride]",1550,5,7
"CSc1ncc2ccc3c(C(N)=O)cn([C@H]4CC[C@@H](N)CC4)c3c2n1 [Compound 34, 9-(cis-4-aminocyclohexyl)-2-(methylsulfanyl)-9H-pyrrolo[3,2-h]quinazoline-7-carboxamide]",855,0.8,1
"CSc1ncc2ccc3c(C(N)=O)cn(C4CCNCC4)c3c2n1 [Compound 35, 2-(methylsulfanyl)-9-(piperidin-4-yl)-9H-pyrrolo[3,2-h]quinazoline-7-carboxamide]",4550,7,23
"CSc1ncc2ccc3c(C(N)=O)c[nH]c3c2n1 [Compound 36, 2-(methylsulfanyl)-9H-pyrrolo[3,2-h]quinazoline-7-carboxamide]",814,13,46
"CSc1ncc2ccc3c(C(N)=O)cn(CC(C)(C)CN)c3c2n1 [Compound 38, 9-(3-amino-2,2-dimethylpropyl)-2-(methylsulfanyl)-9H-pyrrolo[3,2-h]quinazoline-7-carboxamide hydrochloride]",2940,24,34
"Cn1cc(C(N)=O)c2c1-c1nc(N)ncc1CC2 [Ref. cmpound 1, 2-amino-9-methyl-6,9-dihydro-5H-pyrrolo[3,2-h]quinazoline-7-carboxamide, reference compound]",> 10000,> 10000,> 10000
"NC(=O)c1c(-c2ccccc2)[nH]c2c1ccc1cnc(N)nc12 [compound 2, 2-amino-8-phenyl-9H-pyrrolo[3,2-h]quinazoline-7-carboxamide, reference compound]",> 5000,> 5000,> 10000
"Cn1c2c(c(C(N)=O)c1-c1ccccc1)CCc1cnc(N)nc1-2 [compound 3, 2-amino-9-methyl-8-phenyl-6,9-dihydro-5H-pyrrolo[3,2-h]quinazoline-7-carboxamide, reference compound]",> 5000,> 5000,> 10000
"Cn1c(-c2ccccc2)c(C(N)=O)c2ccc3cnc(N)nc3c21 [compound 4, 2-amino-9-methyl-8-phenyl-9H-pyrrolo[3,2-h]quinazoline-7-carboxamide, reference compound]",> 5000,> 5000,> 10000
